From ChEMBL document CHEMBL6071150, “From lab to clinic: The discovery and optimization journey of PI3K inhibitors” (Eur J Med Chem, 2024)

How the values were obtained:
[1] = Clearance in rat liver microsomes; type: ADME, Microsome
[2] = Cmax in mouse at 1 mg/kg, iv; type: ADME, organism-based; conditions: in vivo
[3] = Cmax in rat at 3.4 mg/kg, po; type: ADME, organism-based; conditions: in vivo
[4] = biological target: Phosphatidylinositol 4,5-bisphosphate 3-kinase catalytic subunit alpha isoform (Homo sapiens, UniProt P42336); experiment: Inhibition of GST-tagged human recombinant PI3K-p110alpha extracted from baculovirus-infected Sf9 insect cells incubated for 1 hr by microbeta counter analysis
[5] = biological target: CYP450 (Homo sapiens, UniProt P04798+P05177+P05181+P08684+P10632+P10635+P11509+P11712+P13584+P20813+P20815+P20853+P24462+P24903+P33260+P33261+P51589+P78329+P98187+Q02928+Q08477+Q16678+Q16696+Q5TCH4+Q6VVX0+Q7Z449+Q8TAV3+Q96SQ9+Q9HB55); experiment: Inhibition of CYP450 (unknown origin); type: ADME, protein assay
[6] = Cmax in SCID mouse at 3 mg/kg, iv measured upto 24 hrs by LC/MS-MS analysis; type: ADME, organism-based; conditions: in vivo
[7] = AUC (0 to t) in SCID mouse at 3 mg/kg, iv; type: ADME, organism-based; conditions: in vivo
[8] = Volume of distribution at steady state in mouse at 3 mg/kg, iv; type: ADME, organism-based; conditions: in vivo
[9] = Oral bioavailability in mouse at 3 mg/kg by LC-MS/MS analysis; type: ADME, organism-based; conditions: in vivo
[10] = Oral bioavailability in rat at 3 mg/kg by LC-MS/MS analysis; type: ADME, organism-based; conditions: in vivo
[11] = Oral bioavailability in Beagle dog at 3 mg/kg by LC-MS/MS analysis; type: ADME, organism-based, Canis lupus familiaris; conditions: in vivo
[12] = Half life in SCID mouse at 3 mg/kg, po; type: ADME, organism-based; conditions: in vivo
[13] = test system: MCF7; experiment: cells; conditions: Homo sapiens, MCF7, 96 h
[14] = Oral bioavailability in mouse; type: ADME, organism-based; conditions: in vivo
[15] = Oral bioavailability in Dog; type: ADME, organism-based, Canis lupus familiaris; conditions: in vivo
[16] = Oral bioavailability in mouse at 1 mg/kg; type: ADME, organism-based; conditions: in vivo
[17] = Oral bioavailability in rat at 1 mg/kg; type: ADME, organism-based; conditions: in vivo
[18] = Clearance in mouse at 1 mg/kg, iv; type: ADME, organism-based; conditions: in vivo
[19] = Volume of distribution at steady state in mouse at 1 mg/kg, iv; type: ADME, organism-based; conditions: in vivo, read-out: Vdss
[20] = Cmax in mouse plasma at 5 mg/kg, po; type: ADME, organism-based
[21] = Cmax in mouse plasma at 50 mg/kg, po; type: ADME, organism-based
[22] = AUC in mouse plasma at 5 mg/kg, po; type: ADME, organism-based; conditions: in vivo
[23] = AUC in mouse plasma at 50 mg/kg, po; type: ADME, organism-based; conditions: in vivo
[24] = Oral bioavailability in mouse plasma at 5 mg/kg by LC-MS/MS analysis; type: ADME, organism-based
[25] = Oral bioavailability in mouse plasma at 50 mg/kg by LC-MS/MS analysis; type: ADME, organism-based
[26] = Plasma protein binding in mouse; type: ADME, cell-free; conditions: read-out: PPB (converted)
[27] = Half life in monkey; type: ADME, Macaca mulatta; conditions: rhesus monkey, in vivo
[28] = Metabolic stability in mouse liver microsomes assessed as half life; type: ADME, Microsome
[29] = biological target: Cytochrome P450 3A4 (Homo sapiens, UniProt P08684); experiment: Inhibition of CYP3A4 (unknown origin); type: ADME
[30] = Oral bioavailability in human; type: ADME, organism-based; conditions: in vivo
[31] = Intrinsic clearance in rat liver microsomes; type: ADME, Microsome; conditions: read-out: CLH (converted)

Cytochrome P450 3A4, sequence (P08684 whole entry): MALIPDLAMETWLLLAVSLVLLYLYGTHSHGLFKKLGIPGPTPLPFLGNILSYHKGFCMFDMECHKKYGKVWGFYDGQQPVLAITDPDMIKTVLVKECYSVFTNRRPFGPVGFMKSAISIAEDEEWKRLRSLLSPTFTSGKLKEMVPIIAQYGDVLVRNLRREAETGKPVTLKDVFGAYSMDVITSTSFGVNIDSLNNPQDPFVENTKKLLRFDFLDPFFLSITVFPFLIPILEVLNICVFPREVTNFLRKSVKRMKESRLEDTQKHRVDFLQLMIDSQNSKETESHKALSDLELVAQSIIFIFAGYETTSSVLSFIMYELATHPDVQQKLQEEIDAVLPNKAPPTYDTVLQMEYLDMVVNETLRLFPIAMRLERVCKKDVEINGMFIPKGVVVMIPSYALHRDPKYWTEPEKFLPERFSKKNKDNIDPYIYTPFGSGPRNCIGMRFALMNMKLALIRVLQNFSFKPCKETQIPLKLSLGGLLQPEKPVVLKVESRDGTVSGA
Phosphatidylinositol 4,5-bisphosphate 3-kinase catalytic subunit alpha isoform, sequence (P42336 whole entry, canonical isoform): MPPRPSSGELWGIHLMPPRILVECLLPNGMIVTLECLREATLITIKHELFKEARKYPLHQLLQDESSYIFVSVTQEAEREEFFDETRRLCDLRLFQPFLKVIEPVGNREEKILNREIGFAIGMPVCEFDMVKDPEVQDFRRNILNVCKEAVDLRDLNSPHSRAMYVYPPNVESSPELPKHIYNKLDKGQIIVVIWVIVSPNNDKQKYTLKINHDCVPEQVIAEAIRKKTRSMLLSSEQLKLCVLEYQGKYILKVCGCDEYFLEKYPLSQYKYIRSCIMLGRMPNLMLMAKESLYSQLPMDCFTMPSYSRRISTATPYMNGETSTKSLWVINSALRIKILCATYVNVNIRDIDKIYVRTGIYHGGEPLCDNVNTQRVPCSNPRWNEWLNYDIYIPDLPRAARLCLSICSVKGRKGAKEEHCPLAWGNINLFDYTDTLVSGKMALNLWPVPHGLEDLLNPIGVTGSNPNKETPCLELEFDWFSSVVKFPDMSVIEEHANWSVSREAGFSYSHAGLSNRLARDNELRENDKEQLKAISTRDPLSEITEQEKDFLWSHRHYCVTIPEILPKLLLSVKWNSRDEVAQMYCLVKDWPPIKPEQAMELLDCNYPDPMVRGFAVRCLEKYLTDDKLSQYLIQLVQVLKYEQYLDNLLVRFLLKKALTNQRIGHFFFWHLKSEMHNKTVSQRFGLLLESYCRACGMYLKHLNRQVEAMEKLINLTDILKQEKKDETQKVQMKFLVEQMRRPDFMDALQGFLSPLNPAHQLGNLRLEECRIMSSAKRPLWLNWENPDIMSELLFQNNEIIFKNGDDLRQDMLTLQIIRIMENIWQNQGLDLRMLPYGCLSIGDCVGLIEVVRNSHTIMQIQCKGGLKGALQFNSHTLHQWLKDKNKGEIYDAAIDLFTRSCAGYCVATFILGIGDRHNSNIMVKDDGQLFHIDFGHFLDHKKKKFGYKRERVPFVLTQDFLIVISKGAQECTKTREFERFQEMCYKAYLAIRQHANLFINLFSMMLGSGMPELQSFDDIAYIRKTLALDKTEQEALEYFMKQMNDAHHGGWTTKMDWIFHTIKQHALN

Cc1nc(NC(=O)N2CCC[C@H]2C(N)=O)sc1-c1ccnc(C(C)(C)C(F)(F)F)c1 [ALPELISIB]
CLH [1]: 29 µL/min/µg | Cmax [2]: 0.52 µM | Cmax [3]: 0.19 µM

Cc1nc(NC(=O)N2CCC[C@H]2C(N)=O)sc1-c1ccnc(Nc2ccccc2C(C)(C)C)n1
IC50 [4]: 0.0075 µM | CLH [1]: 62 µL/min/µg | IC50 [5]: > 10 µM

C[C@H]1Cc2ccccc2N1C(=O)Cc1nc(N2CCOCC2)cc(=O)[nH]1 [SAR-260301]
Cmax [6]: 1.87 µg/mL | AUCt [7]: 600 h/ng/mL | Vdss [8]: 1 L/kg | bioavailability [9]: 30% | bioavailability [10]: 70% | bioavailability [11]: 67% | half-life [12]: 1.4 h

Cc1c(CN2CCN(C(=O)[C@@H](C)O)CC2)sc2c(N3CCOCC3)nc(-c3cnc(N)nc3)nc12
IC50 [13]: 0.356 µM

COc1ncc(-c2ccc3nccc(-c4ccnnc4)c3c2)cc1NS(=O)(=O)c1ccc(F)cc1F [OMIPALISIB]
bioavailability [14]: 100% | bioavailability [15]: 80%

CC1(C)OCCn2c1nc1c(N3CCOCC3)nc(-c3cnc(N)nc3)nc12 [PAXALISIB]
bioavailability [16]: 75% | bioavailability [17]: 77%

C[C@H](NC(=O)c1c(N)ccc2cccnc12)c1cc2cccc(Cl)c2c(=O)n1-c1ccccc1
clearance [18]: 0.552 L/h/kg | Vd [19]: 1.7 L/kg | Cmax [20]: 2 µM | Cmax [21]: 24 µM | AUC [22]: 10 µM·h | AUC [23]: 121 µM·h | bioavailability [24]: 56% | bioavailability [25]: 66% | fraction unbound [26]: 0.29

C[C@H](NC(=O)c1c(N)nn2cccnc12)c1cc2cccc(C#Cc3cnn(C)c3)c2c(=O)n1-c1ccccc1 [EGANELISIB]
half-life [27]: 4.3 h | half-life [28]: > 6 h | IC50 [29]: > 20 µM

Cc1c(CN2CCN(C(=O)[C@H](C)O)CC2)sc2c(N3CCOCC3)nc(-c3cnc(N)nc3)nc12 [APITOLISIB]
IC50 [13]: 0.255 µM

C[C@H](Nc1ncnc2[nH]cnc12)c1cc2ccc(F)cc2nc1-c1ccccn1 [AMG-319]
bioavailability [30]: 54% | CLint scaled [31]: 0.34 L/h/kg
